Assay results as given in patent US11331327B2, “Antibacterial use of halogenated salicylanilides” (UNION therapeutics A/S, priority 2014, dated 2022).
In brackets after ≈: the same amount, converted by molar mass. Read-outs that look alike come from different tables or passages of the source.

Test system: S. aureus clinical isolates and S. aureus ATCC 29213
Test: MIC assay according to CLSI criteria, Example 2, S. aureus strains
Format: cell-based, Staphylococcus aureus
Details: Staphylococcus aureus, read-out: MIC
Protocol: Strains were conserved in Luria Bertani (LB) Broth (S. aureus) or Brain Heart Infusion (BHI) (S. pyogenes) supplemented with glycerol 15% (v/v) at −80° C., and reactivated by isolation on LB (S. aureus) or BHI (S. pyogenes) agar plates. Strains were cultivated in Mueller Hinton (MH) Broth-cation adjusted (S. aureus) or BHI (S. pyogenes). All strains were cultivated aerobically (microaerobically for S. pyogenes strains) at 37° C.
Bacterial cultures were stopped in their exponential growth phase and plates were inoculated with the approximate concentration of 5×10^5 cells per well. Plates were incubated at 37° C. for 18 hours (S. aureus) or 24 hours (S. pyogenes).

Compound: O=C(Nc1ccc([N+](=O)[O-])cc1Cl)c1cc(Cl)ccc1O [Niclosamide, 5-chloro-N-(2-chloro-4-nitrophenyl)-2-hydroxybenz-amide]
- MIC (ATCC 29213 / MRSA, strain MRSA 12): 0.5 mg/L (≈ 1.53 µM)
- MIC (ATCC 29213 / MRSA, strain MRSA 13): 0.25 mg/L (≈ 0.764 µM)
- MIC (ATCC 29213 / MRSA, strain MRSA 14): 0.25 mg/L (≈ 0.764 µM)
- MIC (ATCC 29213 / MRSA, strain MRSA 15): 0.25 mg/L (≈ 0.764 µM)
- MIC (ATCC 29213 / MRSA, strain MRSA 16): 0.25 mg/L (≈ 0.764 µM)
- MIC (ATCC 29213 / MRSA, strain MRSA 17): 0.25 mg/L (≈ 0.764 µM)
- MIC (ATCC 29213 / MRSA, strain MRSA 18): 0.25 mg/L (≈ 0.764 µM)
- MIC (ATCC 29213 / MRSA, strain MRSA 19): 0.25 mg/L (≈ 0.764 µM)
- MIC (ATCC 29213 / MRSA, strain MRSA 20): 0.25 mg/L (≈ 0.764 µM)
- MIC (ATCC 29213 / MRSA, strain MRSA 21): 0.25 mg/L (≈ 0.764 µM)
- MIC (ATCC 29213 / MRSA, strain MRSA 22): 0.25 mg/L (≈ 0.764 µM)
- MIC (ATCC 29213 / MRSA, strain MRSA 23): 0.25 mg/L (≈ 0.764 µM)
- MIC (ATCC 29213 / MRSA, strain MRSA 24): 0.25 mg/L (≈ 0.764 µM)
- MIC (ATCC 29213 / MRSA, strain MRSA 25): 0.25 mg/L (≈ 0.764 µM)
- MIC (ATCC 29213 / MRSA, strain MRSA 26): 0.5 mg/L (≈ 1.53 µM)
- MIC (ATCC 29213 / MRSA, strain MRSA 27): 0.5 mg/L (≈ 1.53 µM)
- MIC (ATCC 29213 / MRSA, strain MRSA 27b): 0.25 mg/L (≈ 0.764 µM)
- MIC (ATCC 29213 / MRSA, strain MRSA 28): 0.25 mg/L (≈ 0.764 µM)
- MIC (ATCC 29213 / MRSA, strain MRSA 29): 0.5 mg/L (≈ 1.53 µM)
- MIC (ATCC 29213 / MRSA, strain MRSA 30): 0.25 mg/L (≈ 0.764 µM)
- MIC (ATCC 29213 / MRSA, strain MRSA 31): 0.25 mg/L (≈ 0.764 µM)
- MIC (ATCC 29213 / MRSA, strain MRSA 32): 0.25 mg/L (≈ 0.764 µM)
- MIC (ATCC 29213 / MRSA, strain MRSA 33): 0.25 mg/L (≈ 0.764 µM)
- MIC (ATCC 29213 / MRSA, strain MRSA 34): 0.25 mg/L (≈ 0.764 µM)
- MIC (ATCC 29213 / MRSA, strain MRSA 35): 0.25 mg/L (≈ 0.764 µM)
- MIC (ATCC 29213 / MRSA, strain MRSA 36): 0.25 mg/L (≈ 0.764 µM)
- MIC (ATCC 29213 / MRSA, strain MRSA 37): 0.25 mg/L (≈ 0.764 µM)
- MIC (ATCC 29213 / MRSA, strain MRSA 38): 0.25 mg/L (≈ 0.764 µM)
- MIC (ATCC 29213 / MRSA, strain MRSA 39): 0.25 mg/L (≈ 0.764 µM)
- MIC (ATCC 29213 / MRSA, strain MRSA 40): 0.25 mg/L (≈ 0.764 µM)
- MIC (ATCC 29213 / MRSA, strain MRSA 41): 0.25 mg/L (≈ 0.764 µM)
- MIC (ATCC 29213 / MRSA, strain MRSA 42): 0.25 mg/L (≈ 0.764 µM)
- MIC (ATCC 29213 / MRSA, strain MRSA 43): 0.25 mg/L (≈ 0.764 µM)
- MIC (ATCC 29213 / MRSA, strain MRSA 44): 0.25 mg/L (≈ 0.764 µM)
- MIC (ATCC 29213 / MRSA, strain MRSA 45): 0.25 mg/L (≈ 0.764 µM)
- MIC (ATCC 29213 / MRSA, strain MRSA 46): 0.25 mg/L (≈ 0.764 µM)
- MIC (ATCC 29213 / MRSA, strain MRSA 47): 0.25 mg/L (≈ 0.764 µM)
- MIC (ATCC 29213 / MRSA, strain MRSA 48): 0.25 mg/L (≈ 0.764 µM)
- MIC (ATCC 29213 / MRSA, strain MRSA 49): 0.25 mg/L (≈ 0.764 µM)
- MIC (ATCC 29213 / MRSA, strain MRSA 50): 0.25 mg/L (≈ 0.764 µM)
- MIC (ATCC 29213 / MRSA, strain MRSA 51): 0.125 mg/L (≈ 0.382 µM)
- MIC (ATCC 29213 / MRSA, strain MRSA 52): 0.25 mg/L (≈ 0.764 µM)
- MIC (ATCC 29213 / MRSA, strain MRSA 53): 0.25 mg/L (≈ 0.764 µM)
- MIC (ATCC 29213 / MRSA, strain MRSA 54): 0.25 mg/L (≈ 0.764 µM)
- MIC (ATCC 29213 / MRSA, strain MRSA 55): 0.25 mg/L (≈ 0.764 µM)
- MIC (ATCC 29213 / MRSA, strain MRSA 56): 0.25 mg/L (≈ 0.764 µM)
- MIC (ATCC 29213 / MRSA, strain MRSA 57): 0.25 mg/L (≈ 0.764 µM)
- MIC (ATCC 29213 / MRSA, strain MRSA 58): 0.25 mg/L (≈ 0.764 µM)
- MIC (ATCC 29213 / MRSA, strain MRSA 59): 0.25 mg/L (≈ 0.764 µM)
- MIC (ATCC 29213 / MRSA, strain MRSA 60): 0.25 mg/L (≈ 0.764 µM)
- MIC (ATCC 29213 / MRSA, strain MRSA 61): 0.25 mg/L (≈ 0.764 µM)
- MIC (ATCC 29213 / MRSA, strain MRSA 62): 0.25 mg/L (≈ 0.764 µM)
- MIC (ATCC 29213 / MRSA, strain MRSA 63): 0.25 mg/L (≈ 0.764 µM)
- MIC (ATCC 29213 / MRSA, strain MRSA 64): 0.25 mg/L (≈ 0.764 µM)
- MIC (ATCC 29213 / MRSA, strain MRSA 65): 0.25 mg/L (≈ 0.764 µM)
- MIC (ATCC 29213 / MRSA, strain MRSA 66): 0.25 mg/L (≈ 0.764 µM)
- MIC (ATCC 29213 / MRSA, strain MRSA 67): 0.25 mg/L (≈ 0.764 µM)
- MIC (ATCC 29213 / MRSA, strain MRSA 68): 0.25 mg/L (≈ 0.764 µM)
- MIC (ATCC 29213 / MRSA, strain MRSA 69): 0.25 mg/L (≈ 0.764 µM)
- MIC (ATCC 29213 / MRSA, strain MRSA 70): 0.125 mg/L (≈ 0.382 µM)
- MIC (ATCC 29213 / MRSA, strain MRSA 71): 0.25 mg/L (≈ 0.764 µM)
- MIC (ATCC 29213 / MRSA, strain MRSA 72): 0.25 mg/L (≈ 0.764 µM)
- MIC (ATCC 29213 / MRSA, strain MRSA 73): 0.5 mg/L (≈ 1.53 µM)
- MIC (ATCC 29213 / MRSA, strain MRSA 74): 0.25 mg/L (≈ 0.764 µM)
- MIC (ATCC 29213 / MRSA, strain MRSA 75): 0.5 mg/L (≈ 1.53 µM)
- MIC (ATCC 29213 / MRSA, strain MRSA 76): 0.25 mg/L (≈ 0.764 µM)
- MIC (ATCC 29213 / MRSA, strain MRSA 77): 0.25 mg/L (≈ 0.764 µM)
- MIC (ATCC 29213 / MRSA, strain MRSA 78): 0.5 mg/L (≈ 1.53 µM)
- MIC (ATCC 29213 / MRSA, strain MRSA 79): 0.25 mg/L (≈ 0.764 µM)
- MIC (ATCC 29213 / MRSA, strain MRSA 80): 0.5 mg/L (≈ 1.53 µM)
- MIC (ATCC 29213 / MRSA, strain MRSA 81): 0.5 mg/L (≈ 1.53 µM)
- MIC (ATCC 29213 / MRSA, strain MRSA 82): 0.25 mg/L (≈ 0.764 µM)
- MIC (ATCC 29213 / MRSA, strain MRSA 83): 0.5 mg/L (≈ 1.53 µM)
- MIC (ATCC 29213 / MRSA, strain MRSA 84): 0.25 mg/L (≈ 0.764 µM)
- MIC (ATCC 29213 / MRSA, strain MRSA 85): 0.5 mg/L (≈ 1.53 µM)
- MIC (ATCC 29213 / MRSA, strain MRSA 86): 0.25 mg/L (≈ 0.764 µM)
- MIC (ATCC 29213 / MRSA, strain MRSA 87): 0.25 mg/L (≈ 0.764 µM)
- MIC (ATCC 29213 / MRSA, strain MRSA 88): 0.25 mg/L (≈ 0.764 µM)
- MIC (ATCC 29213 / MRSA, strain MRSA 89): 0.5 mg/L (≈ 1.53 µM)
- MIC (ATCC 29213 / MRSA, strain MRSA 90): 0.5 mg/L (≈ 1.53 µM)
- MIC (ATCC 29213 / MRSA, strain MRSA 91): 0.25 mg/L (≈ 0.764 µM)
- MIC (ATCC 29213 / MRSA, strain MRSA 92): 0.25 mg/L (≈ 0.764 µM)
- MIC (ATCC 29213 / MRSA, strain MRSA 93): 0.25 mg/L (≈ 0.764 µM)
- MIC (ATCC 29213 / MRSA, strain MRSA 94): 0.25 mg/L (≈ 0.764 µM)
- MIC (ATCC 29213 / MRSA, strain MRSA 95): 0.25 mg/L (≈ 0.764 µM)
- MIC (ATCC 29213 / MRSA, strain MRSA 96): 0.25 mg/L (≈ 0.764 µM)
- MIC (ATCC 29213 / MRSA, strain MRSA 97): 0.25 mg/L (≈ 0.764 µM)
- MIC (ATCC 29213 / MRSA, strain MRSA 98): 0.5 mg/L (≈ 1.53 µM)
- MIC (ATCC 29213 / MRSA, strain MRSA 99): 0.25 mg/L (≈ 0.764 µM)
- MIC (ATCC 29213 / MRSA, strain MRSA 100): 0.25 mg/L (≈ 0.764 µM)
- MIC (ATCC 29213 / MRSA, strain MRSA 101): 0.5 mg/L (≈ 1.53 µM)
- MIC (ATCC 29213 / MRSA, strain MRSA 102): 0.25 mg/L (≈ 0.764 µM)
- MIC (ATCC 29213 / MRSA, strain MRSA 103): 0.25 mg/L (≈ 0.764 µM)
- MIC (ATCC 29213 / MRSA, strain MRSA 104): 0.5 mg/L (≈ 1.53 µM)
- MIC (ATCC 29213 / MRSA, strain MRSA 105): 0.25 mg/L (≈ 0.764 µM)
- MIC (ATCC 29213 / MRSA, strain MRSA 106): 0.25 mg/L (≈ 0.764 µM)
- MIC (ATCC 29213 / MRSA, strain MRSA 107): 0.25 mg/L (≈ 0.764 µM)
- MIC (ATCC 29213 / MRSA, strain MRSA 108): 0.25 mg/L (≈ 0.764 µM)
- MIC (ATCC 29213 / MRSA, strain MRSA 109): 0.25 mg/L (≈ 0.764 µM)
- MIC (ATCC 29213 / MRSA, strain MRSA 110): 0.25 mg/L (≈ 0.764 µM)
- MIC (ATCC 29213 / MRSA, strain MRSA 111): 0.5 mg/L (≈ 1.53 µM)
- MIC (ATCC 29213 / MRSA, strain MRSA 112): 0.25 mg/L (≈ 0.764 µM)
- MIC (ATCC 29213 / MRSA, strain MRSA 113): 0.25 mg/L (≈ 0.764 µM)
- MIC (ATCC 29213 / MSSA, strain MSSA 01): 0.5 mg/L (≈ 1.53 µM)
- MIC (ATCC 29213 / MSSA, strain MSSA 02): 0.25 mg/L (≈ 0.764 µM)
- MIC (ATCC 29213 / NEWMAN, strain Newman): 0.25 mg/L (≈ 0.764 µM)
